The structures appear in SMILES notation.

The test system of the first assay is IL-1β production in PMA-differentiated THP-1 cells. Briefly: hTHP-1 assay containing 10% fetal bovine serum (IL-1β production, gramicidin stimulation). Particulars: Homo sapiens, Table 4, average, read-out: hTHP-1 IC50 in 10% FBS (Average IC50 of compounds in hTHP-1 assay). The format is cell-based. As for the experimental part:
(§1) 1.1 Cell Culture • 1) Culture THP-1 cells in the complete RPMI-1640 medium with 10% FBS at 37° C., 5% CO2. • 2) Passage the cells every 3 days by inoculating 3×10^5 cells per ml.
(§2) 1.2 Compound Preparation • Prepare the 3-fold serial dilution of the compounds with DMSO in a 384-well LDV Microplate using TECAN EVO system to generate the compound source plate with 10 concentrations. Top concentration is 30 mM.
(§3) 1.3 Cell Preparation • 1) Centrifuge THP-1 cells at 350 g for 5 min. • 2) Re-suspend cells with complete RMPI-1640 medium, and count cells. • 3) Seed cells in T225 flask, about 2.5×10^7 per flask, treat cells with 20 ng/ml PMA (final DMSO concentration<1%). • 4) Incubate overnight.
FIG. 3 depicts the layout of the plates: HC: 100 μM CRID3 (MCC950)+5 μM gramicidin LC: 5 μM Gramicidin.
1.5 IL-1β detection • 1) Homogenize the 5× diluent #5 with a vortex and add 1 volume of stock solution in 4 volumes of distilled water. • 2) Thaw 20× stock solution of anti-IL1β-Cryptate-antibody and anti-IL1β XL-antibody. Dilute these two antibodies to 1× with detection buffer #3. • 3) Pre-mix the two ready-to-use antibody solutions just prior to use. • 4) Dispense 4 ul of pre-mixed Anti-IL1β antibodies working solution into all wells. • 5) Seal the plate and incubate overnight at 4° C. • 6) Read the cell plate using EnVison and plot Readout vs. the test compound concentration to calculate the IC50.
• 1. IC50 of compounds can be calculated using the following formulas
% inhibition=100−100×[HCave−Readout/(HCave−LCave)] Formula for IC50 • 2. Fit the normalized data in a dose-response manner using XLfit, and calculate the compound concentration.
Regarding `CCn1cc(F)c(S(=O)(=O)NC(=O)Nc2c3c(cc4c2CCC4)CCC3)n1` [Example 16, 1-Ethyl-4-fluoro-N-((1,2,3,5,6,7-hexahydro-s-indacen-4-yl)carbamoyl)-1H-pyrazole-3-sulfonamide], the IC50 lay within 200 to 1000 nM. Same read-out and setting: the result for `CCn1cc(F)c(S(=O)(=O)NC(=O)Nc2c3c(cc4c2CC4)CCC3)n1` [Example 18, 1-Ethyl-4-fluoro-N-((2,4,5,6-tetrahydro-1H-cyclobuta[f]inden-3-yl)carbamoyl)-1H-pyrazole-3-sulfonamide] reads 200 to 1000 nM. As to `CCn1ccc(S(=O)(=O)NC(=O)Nc2c3c(cc4c2CC4)CCC3)n1` [Example 19, 1-Ethyl-N-((2,4,5,6-tetrahydro-1H-cyclobuta[f]inden-3-yl)carbamoyl)-1H-pyrazole-3-sulfonamide], the IC50 lay within 200 to 1000 nM. As for `CCn1ccc(S(=O)(=O)NC(=O)Nc2c3c(cc4c2CCC4)CCC3)n1` [Example 17, 1-Ethyl-N-((1,2,3,5,6,7-hexahydro-s-indacen-4-yl)carbamoyl)-1H-pyrazole-3-sulfonamide], the IC50 lay within 1000 to 5000 nM.

Another assay has the same test system. Briefly: IL-1β production in PMA-differentiated THP-1 cells stimulated with gramicidin (hTHP-1 assay, 2% fetal bovine serum). It counts as cell-based. As to conditions: Homo sapiens, Table 2, hTHP-1 assay containing 2% fetal bovine serum, average, read-out: hTHP-1 IC50 (Average IC50 of compounds in hTHP-1 assay). As to the method:
Procedure 1: IL-1β production in PMA-differentiated THP-1 cells stimulated with Gramicidin.
THP-1 cells were purchased from the American Type Culture Collection and sub-cultured according to instructions from the supplier. Prior to experiments, cells were cultured in complete RPMI 1640 (containing 10% heat inactivated FBS, penicillin (100 units/ml) and streptomycin (100 μg/ml)), and maintained in log phase prior to experimental setup. Prior to the experiment THP-1 were treated with PMA (Phorbol 12-myristate 13-acetate) (20 ng/ml) for 16-18 hours. Compounds were dissolved in dimethyl sulfoxide (DMSO) to generate a 30 mM stock. On the day of the experiment the media was removed and adherent cells were detached with trypsin for 5 minutes. Cells were then harvested, washed with complete RPMI 1640, spun down, resuspended in RPMI 1640 (containing 2% heat inactivated FBS, penicillin (100 units/ml) and streptomycin (100 μg/ml). The cells were plated in a 384-well plate at a density of 50,000 cells/well (final assay volume 50 μl). Compounds were first dissolved in assay medium to obtain a 5× top concentration of 500 μM. 10 step dilutions (1:3) were then undertaken in assay medium containing 1.67% DMSO. 5× compound solutions were added to the culture medium to achieve desired final concentration (e.g. 100, 33, 11, 3.7, 1.2, 0.41, 0.14, 0.046, 0.015, 0.0051, 0.0017 μM). Final DMSO concentration was at 0.37%. Cells were incubated with compounds for 1 hour and then stimulated with gramicidin (5 μM) (Enzo) for 2 hours. Plates were then centrifuged at 340 g for 5 min. Cell free supernatant (40 μL) was collected using a 96-channel PlateMaster (Gilson) and the production of IL-1β was evaluated by HTRF (cisbio). A vehicle only control and a dose titration of CRID3 (100-0.0017 μM) were run concurrently with each experiment. Data was normalized to vehicle-treated samples (equivalent to 0% inhibition) and CRID3 at 100 μM (equivalent to 100% inhibition).
as §1, §2, §3
1.4 THP-1 Stimulation • 1) Wash adherent THP-1 cells with PBS, and detach cells with 4 ml trypsin for T225 flask. • 2) Centrifuge cells at 350 g for 5 min, re-suspend cells with RPMI-1640 containing 2% FBS and count cells with trypan blue. • 3) Transfer 50 nl/well the serial dilution of test compound to 384-well plate by Echo; For the high control and first point of CRID3 (MCC950), transfer 165 nl, then backfill to make the DMSO concentration is consistent in all wells, the plate layout is as below. • 4) Seed 50k cells in 40 ul RPMI-1640 with 2% FBS per well in 384-well plate. • 5) Incubate for 1 h at 37′C, 5% CO2. • 6) Prepare 5× gramicidin, add 10 μl per well, the final concentration is 5 μM, incubate for 2 hrs at 37° C., 5% CO2. • 7) Centrifuge at 350 g for 1 min. • 8) Pipet 16 μl supernatant by apricot, and transfer into white 384 proxiplate. FIG. 3 depicts the layout of the plates: HC: 100 μM CRID3 (MCC950)+5 μM gramicidin LC: 5 μM Gramicidin.
1.5 IL-1β detection • 1) Homogenize the 5× diluent #5 with a vortex and add 1 volume of stock solution in 4 volumes of distilled water. • 2) Thaw 20× stock solution of anti-IL1β-Cryptate-antibody and anti-IL1β XL-antibody. […]
For `O=C(Nc1c2c(nc3c1CCC31CC1)CCC2)NS(=O)(=O)c1cnn2c1OCCC2` [Compound 15, Sodium ((6,7-dihydro-5H-pyrazolo[5,1-b][1,3]oxazin-3-yl)sulfonyl)((1′,5′,6′,7′-tetrahydro-2′H-spiro[cyclopropane-1,3′-dicyclopenta[b,e]pyridin]-8′-yl)carbamoyl)amide], the IC50 was 1000 to 5000 nM.

For `CC1(C)CCc2c1nc1c(c2NC(=O)NS(=O)(=O)c2cnn3c2OCCC3)CCC1` [Compound 14], the IC50 lay within 1000 to 5000 nM. Consider `O=C(Nc1c2c(cc3c1CC3)CCC2)NS(=O)(=O)c1cnn2c1OC[C@H](O)C2` [Compound 402, (R)-6-hydroxy-N-((2,4,5,6-tetrahydro-1H-cyclobuta[f]inden-3-yl)carbamoyl)-6,7-dihydro-5H-pyrazolo[5,1-b][1,3]oxazine-3-sulfonamide], for which the 50% inhibitory concentration (IC50) lay in the range of 40 to 200 nM. Consider `Cc1c(C2CC2)nc2c(c1NC(=O)NS(=O)(=O)c1cnn3c1OCCC3)CCC2` [Compound 16, Sodium ((2-cyclopropyl-3-methyl-6,7-dihydro-5H-cyclopenta[b]pyridin-4-yl)carbamoyl)((6,7-dihydro-5H-pyrazolo[5,1-b][1,3]oxazin-3-yl)sulfonyl)amide], for which the 50% inhibitory concentration (IC50) lay within 1000 to 5000 nM. The same measure, in the same setting: the value for `C[C@@H]1CCc2c1nc1c(c2NC(=O)NS(=O)(=O)c2cnn3c2OCCC3)CCC1` [Compound 404] was 200 to 1000 nM. As to `CC1CCc2c1nc1c(c2NC(=O)NS(=O)(=O)c2cnn3c2OCCC3)CCC1` (stereo not drawn) [Compound 13, Sodium ((6,7-dihydro-5H-pyrazolo[5,1-b][1,3]oxazin-3-yl)sulfonyl)((3-methyl-1,2,3,5,6,7-hexahydrodicyclopenta[b,e]pyridin-8-yl)carbamoyl)amide], the IC50 fell in the range of 200 to 1000 nM. On to `O=C(Nc1c2c(cc3c1CC3)CCC2)NS(=O)(=O)c1cnn2c1OCCC2` [Compound 8, N-((2,4,5,6-tetrahydro-1H-cyclobuta[f]inden-3-yl)carbamoyl)-6,7-dihydro-5H-pyrazolo[5,1-b][1,3]oxazine-3-sulfonamide], for which the IC50 was in the range of 200 to 1000 nM. In the case of `CN[C@H]1COc2c(S(=O)(=O)NC(=O)Nc3c4c(cc5c3CC5)CCC4)cnn2C1` [Compound 401, (R)-6-(methylamino)-N-((2,4,5,6-tetrahydro-1H-cyclobuta[f]inden-3-yl)carbamoyl)-6,7-dihydro-5H-pyrazolo[5,1-b][1,3]oxazine-3-sulfonamide], the IC50 is under 8 nM. On the same count and under the same terms, the value for `O=C(Nc1c2c(cc3c1CCC3)CCC2)NS(=O)(=O)c1cnn2c1OC[C@H](OC(=O)Nc1c3c(cc4c1CCC4)CCC3)C2` [Compound 403, (R)-3-(N-((1,2,3,5,6,7-hexahydro-s-indacen-4-yl)carbamoyl)sulfamoyl)-6,7-dihydro-5H-pyrazolo[5,1-b][1,3]oxazin-6-yl (1,2,3,5,6,7-hexahydro-s-indacen-4-yl)carbamate] was 5000 to 30000 nM; that for `O=C(Nc1c2c(cc3c1CC3)CC2)NS(=O)(=O)c1cnn2c1OCCC2` [Compound 9, N-(tricyclo[6.2.0.03,6]deca-1,3(6),7-trien-2-ylcarbamoyl)-6,7-dihydro-5H-pyrazolo[5,1-b][1,3]oxazine-3-sulfonamide] was 40 to 200 nM. Take `O=C(Nc1cc2c(c3c1CCC3)CCC2)NS(=O)(=O)c1cnn2c1OCCC2` [Compound 10, N-((1,2,3,6,7,8-hexahydro-as-indacen-4-yl)carbamoyl)-6,7-dihydro-5H-pyrazolo[5,1-b][1,3]oxazine-3-sulfonamide]: the IC50 was in the range of 1000 to 5000 nM.

For the compound `O=C(Nc1c2c(nc3c1CCC3)CCC2)NS(=O)(=O)c1cnn2c1OCCC2` [Compound 12, Sodium ((6,7-dihydro-5H-pyrazolo[5,1-b][1,3]oxazin-3-yl)sulfonyl)((1,2,3,5,6,7-hexahydrodicyclopenta[b,e]pyridin-8-yl)carbamoyl)amide], the IC50 lay in the range of 200 to 1000 nM.

Still in this assay, the particulars now being: Homo sapiens, Table 3, hTHP-1 assay containing 2% fetal bovine serum, average, read-out: hTHP-1 IC50 (Average IC50 of compounds in hTHP-1 assay).
Consider `CC(C)(O)c1coc(S(=O)(=O)NC(=O)Nc2c3c(cc4c2CC4)CCC3)c1` [Compound 301, 4-(2-Hydroxypropan-2-yl)-N-((2,4,5,6-tetrahydro-1H-cyclobuta[f]inden-3-yl)carbamoyl)furan-2-sulfonamide], for which the IC50 is 40 to 200 nM. Take `CC(C)n1ccc(S(=O)(=O)NC(=O)Nc2c3c(cc4c2CC4)CCC3)n1` [Compound 302, 1-Isopropyl-N-((2,4,5,6-tetrahydro-1H-cyclobuta[f]inden-3-yl)carbamoyl)-1H-pyrazole-3-sulfonamide]: the IC50 was in the range of 1000 to 5000 nM.

Broadly, the IC50 is the concentration at which inhibition is half-maximal.

Values taken from patent US20230011652A1, “COMPOUNDS AND COMPOSITIONS FOR TREATING CONDITIONS ASSOCIATED WITH NLRP ACTIVITY” (Novartis AG, priority 2018, published 2023).
